± gives the expanded uncertainty stated by the source.
Assays:
[1] = 101.33 kPa, Liquid, Capillary tube (Ostwald / Ubbelohde) method
[2] = xn = mol fraction of the nth substance listed; details: 101 kPa, Liquid, Capillary tube (Ostwald / Ubbelohde) method, x1 = 0.364

FC(F)(F)C1(F)C(F)(F)C(F)(F)C(F)(F)C(F)(F)C1(F)F [perfluoro(methylcyclohexane)]
[1]
Details | viscosity [mPa·s]
319.2 K | 1.031 ± 0.0097
320.16 K | 1.011 ± 0.0095
323.18 K | 0.9582 ± 0.0091
328.13 K | 0.8787 ± 0.0084
333.11 K | 0.8074 ± 0.0078

FC(F)(F)C1(F)C(F)(F)C(F)(F)C(F)(F)C(F)(F)C1(F)F [perfluoro(methylcyclohexane)] + CC1CCCCC1
[2]
Details | viscosity [mPa·s]
320.16 K | 0.7472 ± 0.014
320.19 K | 0.728 ± 0.014
320.34 K | 0.689 ± 0.0069
320.5 K | 0.6723 ± 0.0061
320.74 K | 0.6544 ± 0.0058
321 K | 0.6428 ± 0.0057
321.39 K | 0.6292 ± 0.0055
321.96 K | 0.6151 ± 0.0054
322.62 K | 0.6018 ± 0.0053
324.05 K | 0.5798 ± 0.0052
325.5 K | 0.5617 ± 0.005
326.98 K | 0.5452 ± 0.0049
328.41 K | 0.5313 ± 0.0048
330.08 K | 0.517 ± 0.0047
331.6 K | 0.5034 ± 0.0046
333.21 K | 0.4923 ± 0.0045
334.85 K | 0.4806 ± 0.0044
336.69 K | 0.4679 ± 0.0044
338.48 K | 0.4558 ± 0.0043
340.38 K | 0.4438 ± 0.0042

CC1CCCCC1 [methylcyclohexane]
[1]
Details | viscosity [mPa·s]
298.61 K | 0.7341 ± 0.0061
303.63 K | 0.6844 ± 0.0058
308.95 K | 0.636 ± 0.0054
317.71 K | 0.5669 ± 0.005
323.66 K | 0.5268 ± 0.0047
328.77 K | 0.4964 ± 0.0045
333.69 K | 0.469 ± 0.0043

Reference: the NIST ThermoML archive (doi:10.1021/je0502593)
